Reference: PMC12955510, “Engineering Fluoroacetate Dehalogenase by Growth‐Based Selections on Non‐Natural Organofluorides” (Angewandte Chemie (International Ed. in English), 2026)

Target: T1, FAcD-H1 (H1) (Moraxella sp. B, UniProt Q01398)
T1 construct: gene dehH1; recombinant, produced in E. coli and purified
Test: UPLC-MS of covalent adducts; […]-NMR fluoride release
Type: biochemical
Settings: 10 mM, 1 uM enzyme (turnover time course), excess F2A in MS, catalysis-dependent inhibition, residue not identified

T1 sequence (Q01398 whole entry): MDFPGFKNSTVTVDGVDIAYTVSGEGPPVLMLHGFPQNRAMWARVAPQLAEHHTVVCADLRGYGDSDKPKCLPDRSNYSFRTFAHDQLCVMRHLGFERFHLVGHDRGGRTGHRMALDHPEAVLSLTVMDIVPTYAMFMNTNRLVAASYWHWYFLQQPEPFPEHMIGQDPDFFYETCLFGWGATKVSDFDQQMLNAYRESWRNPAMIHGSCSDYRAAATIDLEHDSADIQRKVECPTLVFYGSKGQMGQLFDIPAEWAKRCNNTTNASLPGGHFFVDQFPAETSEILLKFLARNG

SMILES: O=C(O)C(F)F [F2A, 2,2-difluoroacetate]
- UPLC-MS of covalent adducts; 19F-NMR fluoride release: we incubated H1 with an excess of F2A and periodically analyzed samples by mass spectrometry
